From patent publication US8252822B2, “Heterocyclic compounds and uses as anticancer agents” (Acea Biosciences, Inc., priority 2007, dated 2012) come the findings set out here.

The test system of one assay is PC3. Description: RT-CES cell proliferation inhibition, PC3. Format: cell-based. As to conditions: Homo sapiens, PC-3. The source says:
(§1) The biological activity of compounds disclosed herein was monitored and profiled using the Real-Time Cell Electronic Sensing (RT-CES®) system from ACEA Biosciences, Inc. The RT-CES system utilizes cell-substrate impedance technology to monitor cellular behavior inside tissue culture wells in a microtiter plate format. The technology features in the integration of molecular and cell biology with microelectronics and is based on the electronic detection of biological assay process. The details of this cell electronic sensing technology and associated devices, systems and methods of use as described in U.S. provisional application No. 60/379,749, filed on Jul. […]
(§2) For measurement of cell-substrate or cell-electrode impedance using RT-CES technology, microelectrodes having appropriate geometries are fabricated onto the bottom surfaces of microtiter plate or similar device, facing into the wells. […] When there are changes to the biological status of the cells analogue electronic readout signals are measured automatically and in real time, and are converted to digital signals for processing and for analysis. In a RT-CES system, a cell index (arbitrary representation of change in impedance) is automatically derived and provided based on measured electrode impedance values. […]
(§3) To quantify cell status based on the measured cell-electrode impedance, a parameter termed Cell Index is derived. […]

Another assay concerns Panc-1. Description: RT-CES cell proliferation inhibition, Panc-1. Format: cell-based. To be noted: Homo sapiens.
Text: as §1, §2, §3

For another assay, the system named is SH-SY5Y. Description: RT-CES cell proliferation inhibition, SH-SY5Y. Format: cell-based. As to conditions: Homo sapiens.
Text: as §1, §2, §3

In a further assay the test system is GTL16. In words: RT-CES cell proliferation inhibition, GTL16. Format: cell-based. To be noted: Homo sapiens, GTL 16.
Text: as §1, §2, §3

A further assay has as its system KB. In words: RT-CES cell proliferation inhibition, KB. Format: cell-based. As to conditions: Homo sapiens.
Text: as §1, §2, §3

The subject of another assay is MDCK. In words: RT-CES cell proliferation inhibition, MDCK. Format: cell-based, Monkey. To be noted: Canis lupus familiaris.
Text: as §1, §2, §3

Another assay deals with HT29. In words: RT-CES cell proliferation inhibition, HT29. Format: cell-based. As to conditions: Homo sapiens, HT-29.
Text: as §1, §2, §3

A further assay has as its system ST30. Description: RT-CES cell proliferation inhibition, ST30. Format: cell-based. As to conditions: Homo sapiens.
Text: as §1, §2, §3

A further assay relates to A549 cells. In words: RT-CES cell proliferation inhibition, A549. Format: cell-based, Human. To be noted: for IC50: Homo sapiens.
Text: The biological activity of compounds disclosed herein was monitored and profiled using the Real-Time Cell Electronic Sensing (RT-CES®) system from ACEA Biosciences, Inc. The RT-CES system utilizes cell-substrate impedance technology to monitor cellular behavior inside tissue culture wells in a microtiter plate format. The technology features in the integration of molecular and cell biology with microelectronics and is based on the electronic detection of biological assay process. The details of this cell electronic sensing technology and associated devices, systems and methods of use as described in U.S. provisional application No. 60/379,749, filed on Jul. 20, 2002; U.S. provisional application No. 60/435,400, filed on Dec. 20, 2002; U.S. Provisional application 60/469,572, filed on May 9, 2003, PCT application number PCT/US03/22557, filed on Jul. 18, 2003; PCT application number PCT/US03/22537, filed on Jul. 18, 2003; U.S. patent application Ser. No. 10/705,447, filed on Nov. 10, 2003; U.S. patent application Ser. No. 10/705,615, filed on Nov. 10, 2003, each of which is incorporated by reference. Additional details of RT-CES technology is further disclosed in U.S. provisional application No. 60/519,567, filed on Nov. 12, 2003, and U.S. provisional application No. 60/542,927, filed on Feb. 9, 2004.
For measurement of cell-substrate or cell-electrode impedance using RT-CES technology, microelectrodes having appropriate geometries are fabricated onto the bottom surfaces of microtiter plate or similar device, facing into the wells. Cells are introduced into the wells of the devices, and make contact to and attach to the electrode surfaces. The presence, absence or change of properties of cells affects the electronic and ionic passage on the electrode sensor surfaces. Measuring the impedance between or among electrodes provides important information about biological status of cells present on the sensors. When there are changes to the biological status of the cells analogue electronic readout signals are measured automatically and in real time, and are converted to digital signals for processing and for analysis. In a RT-CES system, a cell index (arbitrary representation of change in impedance) is automatically derived and provided based on measured electrode impedance values. The cell index obtained for a given well reflects: 1) how many cells are attached to the electrode surfaces in this well; 2) how well cells are attached to the electrode surfaces in this well. Thus, the more the cells of same type in similar physiological conditions attach the electrode surfaces, the larger the cell index. And, the better the cells attach to the electrode surfaces (e.g., the cells spread-out more to have larger contact areas, or the cells attach tighter to electrode surfaces), the larger the cell index.
The RT-CES system comprises three components, an electronic sensor analyzer, a device station and 16× or 96× microtiter devices. Microelectrode sensor array was fabricated on glass slides with lithographical microfabrication methods and the electrode-containing slides are assembled to plastic trays to form electrode-containing wells. The device station receives the 16× or 96× microtiter plate devices and is capable of electronically switching any one of the wells to the sensor analyzer for impedance measurement. In operation, the devices with cells cultured in the wells are placed into a device station that is located inside an incubator. Electrical cables connect the device station to the sensor analyzer. Under the RT-CES software control, the sensor analyzer can automatically select wells to be measured and continuously conduct impedance measurements. The impedance data from the analyzer is transferred to a computer, analyzed and processed by the integrated software.
as §3

The subject of assay [1] is a number of cancer cell lines (MCF7adr, PC3, KB, KB200, Bcap37). Description: RT-CES time-dependent cell index, a number of cancer cell lines (FIG. 10, 11). Format: cell-based, human. To be noted: various concentrations.
Text: as §1, §2, §3

Read-outs that look alike come from different tables or passages of the source.

As for `Br.CCOc1ccc(Nc2nc(-c3c(C)nc4sccn34)cs2)cc1` [Compound 27, 2-(4-ethoxyphenyl)amino-4-(6-methylimidazo[2,1-b]thiazol-5-yl)thiazole], the concentration for half-maximal inhibition (IC50) with PC3 (PC3, 24 hrs, read-out: IC50 (24 hr)) was 10.9 nM; with PC3 (PC3, 48 hrs, read-out: IC50 (48 hr)), 5.37 nM; in the assay on Panc-1 (Panc-1, 24 hrs, read-out: IC50 (24 hr)) it was 113 nM; in the assay on Panc-1 (Panc-1, 48 hrs, read-out: IC50 (48 hr)), 426 nM; with SH-SY5Y (24 hrs, read-out: IC50 (24 hr)) it was 13.4 nM; with SH-SY5Y (48 hrs, read-out: IC50 (48 hr)), 6.7 nM. For the same compound, the IC50 was 138 nM with GTL16 (GTL16, 24 hrs, read-out: IC50 (24 hr)); 2.1 nM in the assay with GTL16 (GTL16, 48 hrs, read-out: IC50 (48 hr)); 22.2 nM in the assay on KB (24 hrs, read-out: IC50 (24 hr)); 18.1 nM in the assay with KB (48 hrs, read-out: IC50 (48 hr)); 930 nM with MDCK (24 hrs, read-out: IC50 (24 hr)); 1870 nM in the assay on MDCK (48 hrs, read-out: IC50 (48 hr)). In addition, the IC50 in the assay with HT29 (HT29, 24 hrs, read-out: IC50 (24 hr)) came to 53.6 nM; in the assay on HT29 (HT29, 48 hrs, read-out: IC50 (48 hr)), 58.8 nM; in the assay on ST30 (ST30, 24 hrs, read-out: IC50 (24 hr)), 38.8 nM; with ST30 (ST30, 48 hrs, read-out: IC50 (48 hr)), 42.4 nM; with A549 cells (A549, 24 hours after compound treatment, normalized Cell Index, read-out: IC50 (24 hr)), 57.4 nM; in the assay with A549 cells (A549, 48 hrs, read-out: IC50 (48 hr)), 29.1 nM. In addition, in the assay on A549 cells (A549, complex kinetic responses), the “concentration at or above which cell indices first decreased with time and then increased” value was no less than 62.5 nM. The “inhibitory ability against the proliferation of A549 cells” value in the assay on A549 cells (various concentrations studied, time-dependent cell index) is “exhibited inhibitory ability against the proliferation of A549 cells”. Also, the “inhibitory effect on the proliferation of a number of cancer cell lines” value in [1] was “exhibited inhibitory effect on the proliferation of a number of cancer cell lines”.
